{"source": "patent US6673364B1", "about": "“Liposome having an exchangeable component” (The University of British Columbia, priority 1995, dated 2004)", "key": {"[1]": {"experiment": "Lipid mixing (FRET) assay, Ca2+-induced fusion of PE:PS LUVs", "method": "(§1) Lipid mixtures were prepared as described for NMR measurements. The resultant multilamellar vesicles (MLV) were frozen in liquid nitrogen and then thawed at 30° C. five times. Large unilamellar vesicles (LUV) were produced by extrusion of the frozen and thawed MLV ten times through 2 stacked polycarbonate filters of […] pore size at 30° C. and pressures of 200-500 psi (Hope, et al., Biochim. Biophys. Acta 812:55-65 (1985)).\nLipid mixing was measured by a modification of the fluorescence resonance energy transfer (FRET) assay of Struck, et al. (Biochemistry 20:4093-4099 (1981)). LUVs were prepared containing the fluorescent lipids, N-(7-nitro-2-1,3-benzoxadiazol-4-yl)-dioleoylphosphatidylethanolamine (NBD-PE) and N-(lissamine rhodamine B sulfonyl)-dipalmitoylphosphatidylethanolamine (Rh-PE) at 0.5 mol %. LUVs (50-60 μM) and a three-fold excess of unlabelled target vesicles were mixed in the fluorimeter at 37° C. for short term assays (≦1 hour), or in sealed cuvettes in a dark water bath at 37° C. for longer assays. For measurements of fusion after PEG-lipid transfer, an excess of liposomes prepared from 1-palmitoyl-2-oleoyl-phosphatidylcholine (POPC) was added as a sink for the PEG-lipid. Fluorescence emission intensity was measured at 517 nm with excitation at 465 nm both before and after the addition of Triton X-100 (final concentration of 0. 5% or 1% when POPC sink was used). Data is presented as either uncorrected fluorescence intensity for short term assays (<1 hour) or as percentage fusion. Light scattering controls were performed by replacing LUVs labelled with 0.5 mol % probes with unlabelled vesicles. Maximum fusion was determined using mock fused vesicles containing 0.125 mol % of each fluorescent probe. The percentage fusion was calculated as: [formula]\nwhere F(t)=fluorescence intensity at time t; Fo=fluorescence intensity at zero time; FT=fluorescence intensity in the presence of Triton X-100. M and L represent the same measurements for the mock fused control and the light scattering control respectively."}, "[2]": {"experiment": "Lipid mixing (FRET) assay, NaCl-induced fusion of DOPE:DODAC liposomes", "details": "DOPE:DODAC:PEG-lipid 83:15:2, 300 mM NaCl, POPC sink", "method": "as §1\nLipid mixing was measured by a modification of the fluorescence resonance energy transfer (FRET) assay of Struck, et al. (Biochemistry 20:4093-4099 (1981)). […] Fluorescence emission intensity was measured at 517 nm with excitation at 465 nm both before and after the addition of Triton X-100 (final concentration of 0. 5% or 1% when POPC sink was used). Data is presented as either uncorrected fluorescence intensity for short term assays (<1 hour) or as percentage fusion. […] Maximum fusion was determined using mock fused vesicles containing 0.125 mol % of each fluorescent probe. The percentage fusion was calculated as: [formula]\nwhere F(t)=fluorescence intensity at time t; Fo=fluorescence intensity at zero time; FT=fluorescence intensity in the presence of Triton X-100. […]"}, "[3]": {"experiment": "31P-NMR phase preference of equimolar DOPE:cholesterol mixtures with bilayer stabilizing component (BSC)", "assay_type": "physicochemical", "method": "Lipid components were mixed in 1-2 ml of benzene:methanol (95:5, v/v) and then lyophilized for a minimum of 5 hours at a pressure of <60 millitorr using a Virtis lyophilizer equipped with a liquid N2 trap. Multilamellar vesicles (MLVs) were prepared by hydrating the dry lipid mixtures in 150 mM NaCl, buffered with 10 mM Hepes-NaOH, pH 7.4 (Hepes-buffered saline, HBS). Mixtures were vortexed to assist hydration. To produce large unilamellar vesicles (LUVs), MLVs were first frozen in liquid nitrogen and then thawed at 30° C. five times. LUVs were produced by extrusion of the frozen and thawed MLVs ten times through 2 stacked polycarbonate filters of 100 nm pore size at 30° C. and pressures of 200-500 psi (Hope, et al., Biochim. Biophys. Acta, 812:55-65 (1985)).\n^31P-NMR spectra were obtained using a temperature controlled Bruker MSL200 spectrometer operating at 81 MHz. Free induction decays were accumulated for 2000 transients using a 4 μs, 90° pulse, 1 sec. interpulse delay, 20 KHz sweep width and Waltz decoupling. A 50 Hz line broadening was applied to the data prior to Fourier transformation. Samples were allowed to equilibrate at the indicated temperature for 30 minutes prior to data accumulation. Lipid concentrations of 30-70 mM were used."}, "[4]": {"details": "PE:PS LUVs, 2 mol % PE-PEG2000, POPC sink"}}, "data": [{"substance": "PEG2000 conjugated to dipalmitoylphosphatidylethanolamine [DPPE-PEG2000]", "values": [{"measurement": "time at which fusion was essentially complete", "setting": "[1]; [4]", "result": 24, "unit": "h"}, {"measurement": "implied decrease in rate of transfer (acyl chains 14 to 16 carbons)", "setting": "[1]; relative to DMPE-PEG2000", "result": "30-40 fold"}]}, {"substance": "PEG2000 conjugated to dimyristoylphosphatidylethanolamine [DMPE-PEG2000]", "values": [{"measurement": "time delay (lag phase) prior to fusion", "setting": "[1]; 2, 3, 5 or 10 mol % PEG-lipid, 36fold excess POPC liposomes", "result": "increase in the time delay prior to fusion with increasing PEG-lipid concentration"}, {"measurement": "concentration sufficient to eliminate (completely inhibit) Ca2+-induced fusion", "setting": "[1]; PE:PS (1:1) LUVs, 5 mM Ca2+, 37° C.", "result": 2, "unit": "mol %"}, {"measurement": "time at which fusion was essentially complete", "setting": "[1]; [4]", "result": 0.667, "unit": "h"}, {"measurement": "extent of fusion at 21 hr", "setting": "[2]", "result": "< 20 % of maximum"}]}, {"substance": "1-O-methyl-(poly(ethoxy)-O-succinyl-O-(egg)ceramide [egg ceramide-PEG2000]", "values": [{"measurement": "phase preference (31P-NMR)", "setting": "[3]; DOPE:cholesterol:BSC 1:1:0.1, 0 to 60° C.", "result": "both bilayer and HII phase lipid are in evidence at most temperatures"}, {"measurement": "phase preference (31P-NMR)", "setting": "[3]; equimolar DOPE:cholesterol, BSC 20 mol % of phospholipid (1:1:0.25)", "result": "exclusively bilayer up to 60 °C"}, {"measurement": "time for 50% maximal fusion", "setting": "[2]; 37° C.", "result": "over 20 hr"}]}, {"substance": "PEG2000 conjugated to distearoylphosphatidylethanolamine [DSPE-PEG2000]", "values": [{"measurement": "level of fusion after 24 hours", "setting": "[1]; [4]", "result": "20 % of maximum"}]}]}
